Assay [1] concerns the target T1, 5-HT2C edited (accession number AAF35842.1) (Homo sapiens, UniProt P28335, I156V/I160V/N158S). Description: biochemical. It is filed as binding.
Target sequence in this assay (P28335 whole entry I156V/N158S/I160V, looked up): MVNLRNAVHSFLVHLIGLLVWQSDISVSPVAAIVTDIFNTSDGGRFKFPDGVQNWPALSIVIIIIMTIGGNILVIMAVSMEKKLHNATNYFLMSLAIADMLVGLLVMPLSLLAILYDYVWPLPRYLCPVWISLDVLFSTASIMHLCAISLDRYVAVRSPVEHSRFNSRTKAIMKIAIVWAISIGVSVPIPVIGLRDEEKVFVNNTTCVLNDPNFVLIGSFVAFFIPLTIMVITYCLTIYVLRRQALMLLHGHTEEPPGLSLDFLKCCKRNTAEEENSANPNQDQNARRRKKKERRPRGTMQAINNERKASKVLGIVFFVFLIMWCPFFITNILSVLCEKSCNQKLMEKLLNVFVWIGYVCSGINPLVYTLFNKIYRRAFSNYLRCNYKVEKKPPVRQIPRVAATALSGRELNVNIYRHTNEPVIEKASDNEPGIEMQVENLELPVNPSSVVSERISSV
Assay [2] has as its target T1, 5-HT2C edited (accession number AAF35842.1). Put plainly: cell-based.
Target sequence in this assay (P28335 33-458 I156V/N158S/I160V limits assumed): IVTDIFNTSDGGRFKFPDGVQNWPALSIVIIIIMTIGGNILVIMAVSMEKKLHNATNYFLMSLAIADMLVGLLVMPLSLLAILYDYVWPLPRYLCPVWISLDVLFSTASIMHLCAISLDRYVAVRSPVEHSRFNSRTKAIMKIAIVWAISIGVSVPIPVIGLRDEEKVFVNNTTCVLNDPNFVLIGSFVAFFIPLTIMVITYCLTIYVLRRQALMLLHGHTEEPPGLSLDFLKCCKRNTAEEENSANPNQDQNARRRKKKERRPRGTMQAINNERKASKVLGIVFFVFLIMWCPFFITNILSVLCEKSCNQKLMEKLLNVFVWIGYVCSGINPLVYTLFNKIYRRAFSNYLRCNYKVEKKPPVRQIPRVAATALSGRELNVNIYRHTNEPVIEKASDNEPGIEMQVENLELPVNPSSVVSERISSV

Structures are written as SMILES. A value given as a limit tells only on which side of the number the result lay.

As a reminder, the IC50 is the point on the concentration scale where inhibition reaches its midpoint. Low values mean inhibition by little substance, high ones a need for much substance. Broadly, the EC50 is the concentration giving half of the maximal effect. Read a low EC50 as higher potency in that assay. On to `CN(C)C(C)(C)Cn1ccc2cc(F)ccc21` [Example 14, 1-(5-fluoro-1H-indol-1-yl)-N,N,2-trimethylpropan-2-amine], for which, in assay [1], the IC50 was more than 10 µM. Also, the EC50 in assay [2] is more than 10 µM.

Take `CN[C@H](C)Cn1ccc2nc(OC)ccc21` [Example 29, (R)-1-(5-methoxy-1H-pyrrolo[3,2-b]pyridin-1-yl)-N-methylpropan-2-amine]: the IC50 in assay [1] is more than 10 µM. The molecule also had an EC50 in assay [2] of more than 10 µM.

In the case of `CN[C@H](C)Cn1ccc2cc(OC)ncc21` [Example 32, (R)-1-(5-methoxy-1H-pyrrolo[2,3-c]pyridin-1-yl)-N-methylpropan-2-amine], in assay [1], the IC50 lay in the range of 1 to 10 µM. In assay [2], the EC50 fell in the range of 1 to 10 µM.

The molecule `COc1ccc2c(ccn2C(=O)CN(C)C)c1` [Example 45, 2-(dimethylamino)-1-(5-methoxy-1H-indol-1-yl)ethan-1-one] yielded a 50% inhibitory concentration (IC50) in assay [1] of more than 10 µM. In assay [2], the EC50 was more than 10 µM.

In turn, `CN(C)C(C)(C)Cn1ccc2c(F)cccc21` [Example 18, 1-(4-fluoro-1H-indol-1-yl)-N,N,2-trimethylpropan-2-amine] displayed an IC50 in assay [1] of more than 10 µM. The EC50 in assay [2] was more than 10 µM.

For `COc1ccc2c(c1)CCN(CCN(C)C)C2` [Example 11, 2-(6-methoxy-3,4-dihydroisoguinolin-2(1H)-yl)-N,N-dimethylethan-1-amine], the IC50 in assay [1] lay within 0.101 to 1 µM. The EC50 in assay [2] is more than 10 µM.

Molecule `COc1ccc2c(ccn2C[C@@H](C)N)n1` [Example 28, (R)-1-(5-methoxy-1H-pyrrolo[3,2-b]pyridin-1-yl)propan-2-amine] displayed an IC50 in assay [1] of more than 10 µM. This molecule registered a concentration giving a half-maximal response (EC50) in assay [2] of 1 to 10 µM.

`COc1ccc2c(ccn2CC2(N(C)C)CC2)c1` [Example 2, 1-((5-methoxy-1H-indol-1-yl)methyl)-N,N-dimethylcyclopropan-1-amine]: the IC50 in assay [1] is 1 to 10 µM. Further, the EC50 in assay [2] is more than 10 µM.

In the case of `COc1ccc2c(ccn2CC(C)(C)N(C)C)n1` [Example 21, 1-(5-methoxy-1H-pyrrolo[3,2-b]pyridin-1-yl)-N,N,2-trimethylpropan-2-amine], in assay [1], the IC50 was more than 10 µM. For the same molecule, in assay [2], the concentration giving a half-maximal response (EC50) is more than 10 µM.

On to `C[C@H](Cn1ccc2cnccc21)N(C)C` [Example 39, (R)—N,N-dimethyl-1-(1H-pyrrolo[3,2-c]pyridin-1-yl)propan-2-amine], for which, in assay [1], the IC50 is more than 10 µM. Further, the EC50 in assay [2] was more than 10 µM.

As for `CN(C)CC(=O)n1ccc2ccccc21` [Example 44, 2-(dimethylamino)-1-(1H-indol-1-yl)ethan-1-one], in assay [1], the IC50 is more than 10 µM. The molecule also registered an EC50 in assay [2] of more than 10 µM.

Regarding `COc1ccc2c(c1)CCCN2CCN(C)C` [Example 9, 2-(6-methoxy-3,4-dihydroquinolin-1(2H)-yl)-N,N-dimethylethan-1-amine], the IC50 in assay [1] fell in the range of 0.101 to 1 µM. In assay [2], this molecule came in with an EC50 of more than 10 µM.

`COc1ccc2c(ccn2CC(C)(C)N(C)C)c1` [Example 1, 1-(5-methoxy-1H-indol-1-yl)-N,N,2-trimethylpropan-2-amine] displayed an IC50 in assay [1] of 1 to 10 µM. In assay [2], this molecule registered an EC50 of more than 10 µM.

Molecule `COc1ccc2c(ccn2CCN(C)C)n1` [Example 3, 2-(5-methoxy-1H-pyrrolo[3,2-b]pyridin-1-yl)-N,N-dimethylethan-1-amine] displayed an IC50 in assay [1] of 0.101 to 1 µM. In assay [2], this molecule had an EC50 of more than 10 µM.

`COc1ccc2c(c1)CCN2CCN(C)C` [Example 8, 2-(5-methoxyindolin-1-yl)-N,N-dimethylethan-1-amine]: in assay [1], the IC50 is 1 to 10 µM. The EC50 in assay [2] is more than 10 µM.

Regarding `C[C@@H](N)Cn1ccc2cnccc21` [Example 37, (R)-1-(1H-pyrrolo[3,2-c]pyridin-1-yl)propan-2-amine], in assay [1], the IC50 is more than 10 µM. In addition, the EC50 in assay [2] fell in the range of 1 to 10 µM.

As for `COc1ccc2c(ccn2[C@H]2C[C@H](N(C)C)C2)c1` [Example 25, (1r,3r)-3-(5-methoxy-1H-indol-1-yl)-N,N-dimethylcyclobutan-1-amine], in assay [1], the IC50 was 1 to 10 µM. Also, the concentration giving a half-maximal response (EC50) in assay [2] is more than 10 µM.

For `CN(C)CCn1ccc2cnccc21` [Example 7, N,N-dimethyl-2-(1H-pyrrolo[3,2-c]pyridin-1-yl)ethan-1-amine], the IC50 in assay [1] is more than 10 µM. This molecule also gave an EC50 in assay [2] of more than 10 µM.

In turn, `Cc1cn(CC(C)(C)N(C)C)c2ccc(F)cc12` [Example 13, 1-(5-fluoro-3-methyl-1H-indol-1-yl)-N,N,2-trimethylpropan-2-amine] had a half-inhibitory concentration (IC50) in assay [1] of 1 to 10 µM. For the same molecule, the EC50 in assay [2] lay within 1 to 10 µM.

`C[C@H](C(=O)n1ccc2cc(F)ccc21)N(C)C` [Example 48, (R)-2-(dimethylamino)-1-(5-fluoro-1H-indol-1-yl)propan-1-one] showed a half-maximal inhibitory concentration (IC50) in assay [1] of 1 to 10 µM. This molecule returned an EC50 in assay [2] of more than 10 µM.

In the case of `CN(C)C(C)(C)Cn1ccc2cccc(F)c21` [Example 20, 1-(7-fluoro-1H-indol-1-yl)-N,N,2-trimethylpropan-2-amine], the IC50 in assay [1] was more than 10 µM. The same molecule registered an EC50 in assay [2] of more than 10 µM.

`CN(C)C(C)(C)Cn1ccc2ccc(F)cc21` [Example 19, 1-(6-fluoro-1H-indol-1-yl)-N,N,2-trimethylpropan-2-amine] had an IC50 in assay [1] of more than 10 µM. In assay [2], this molecule gave a concentration for a half-maximal effect (EC50) of more than 10 µM.

In assay [1], `C[C@@H](N)Cn1ccc2cncnc21` [Example 26, (R)-1-(7H-pyrrolo[2,3-d]pyrimidin-7-yl)propan-2-amine] had a half-inhibitory concentration (IC50) of 1 to 10 µM. The molecule further came in with an EC50 in assay [2] of 1 to 10 µM.

`COc1ccc2c(ccn2CC(C)(C)N)c1` [Example 42, 1-(5-methoxy-1H-indol-1-yl)-2-methylpropan-2-amine]: the concentration for half-maximal inhibition (IC50) in assay [1] fell in the range of 1 to 10 µM. Further, in assay [2], the EC50 fell in the range of 1 to 10 µM.

`CN[C@H](C)Cn1ccc2cc(OC)cnc21` [Example 35, (R)-1-(5-methoxy-1H-pyrrolo[2,3-b]pyridin-1-yl)-N-methylpropan-2-amine] gave an IC50 in assay [1] of more than 10 µM. The molecule also displayed an EC50 in assay [2] of 1 to 10 µM.

In assay [1], `CN[C@H](C)Cn1ccc2cnccc21` [Example 38, (R)—N-methyl-1-(1H-pyrrolo[3,2-c]pyridin-1-yl)propan-2-amine] displayed a half-inhibitory concentration (IC50) of more than 10 µM. Moreover, in assay [2], the EC50 was more than 10 µM.

For the molecule `C[C@H](C(=O)n1ccc2ccccc21)N(C)C` [Example 46, (R)-2-(dimethylamino)-1-(1H-indol-1-yl)propan-1-one], the IC50 in assay [1] fell in the range of 1 to 10 µM. Besides, the EC50 in assay [2] is more than 10 µM.

On to `CN(C)CCn1ccc2cncnc21` [Example 6, N,N-dimethyl-2-(7H-pyrrolo[2,3-d]pyrimidin-7-yl)ethan-1-amine], for which the IC50 in assay [1] lay within 1 to 10 µM. In assay [2], this molecule yielded a concentration giving a half-maximal response (EC50) of more than 10 µM.

In the case of `COc1cc2ccn(CC(C)(C)N(C)C)c2cn1` [Example 22, 1-(5-methoxy-1H-pyrrolo[2,3-c]pyridin-1-yl)-N,N,2-trimethylpropan-2-amine], the IC50 in assay [1] is more than 10 µM. Besides, the EC50 in assay [2] is more than 10 µM.

As to `COc1cnc2c(ccn2C[C@@H](C)N(C)C)c1` [Example 36, (R)-1-(5-methoxy-1H-pyrrolo[2,3-b]pyridin-1-yl)-N,N-dimethylpropan-2-amine], in assay [1], the IC50 was in the range of 1 to 10 µM. Further, the EC50 in assay [2] is 1 to 10 µM.

The molecule `COc1cc2ccn(CC(C)(C)N(C)C)c2cc1F` [Example 16, 1-(6-fluoro-5-methoxy-1H-indol-1-yl)-N,N,2-trimethylpropan-2-amine] displayed a half-maximal inhibitory concentration (IC50) in assay [1] of more than 10 µM. The molecule further yielded an EC50 in assay [2] of more than 10 µM.

`COc1ncc2c(ccn2CC(C)(C)N(C)C)n1` [Example 23, 1-(2-methoxy-5H-pyrrolo[3,2-d]pyrimidin-5-yl)-N,N,2-trimethylpropan-2-amine] returned an IC50 in assay [1] of more than 10 µM. In assay [2], this molecule returned an EC50 of more than 10 µM.

Regarding `COc1ccc2c(ccn2C(=O)[C@@H](C)N(C)C)c1` [Example 47, (R)-2-(dimethylamino)-1-(5-methoxy-1H-indol-1-yl)propan-1-one], the IC50 in assay [1] is more than 10 µM. The EC50 in assay [2] was more than 10 µM.

Turning to `Cc1cn(CC(C)(C)N)c2ccc(F)cc12` [Example 40, 1-(5-fluoro-3-methyl-1H-indol-1-yl)-2-methylpropan-2-amine], the IC50 in assay [1] is 0.101 to 1 µM. Also, the EC50 in assay [2] was in the range of 0.101 to 1 µM.

Turning to `CN(C)C(C)(C)Cn1ccc2c(F)c(F)ccc21` [Example 12, 1-(4,5-difluoro-1H-indol-1-yl)-N,N,2-trimethylpropan-2-amine], the IC50 in assay [1] is more than 10 µM. In addition, the EC50 in assay [2] is more than 10 µM.

The molecule `COc1cc2ccn(CCN(C)C)c2cn1` [Example 4, 2-(5-methoxy-1H-pyrrolo[2,3-c]pyridin-1-yl)-N,N-dimethylethan-1-amine] returned an IC50 in assay [1] of 0.101 to 1 µM. Also, the EC50 in assay [2] was more than 10 µM.

In turn, `CN(C)CC(=O)n1ccc2cc(F)ccc21` [Example 43, 2-(dimethylamino)-1-(5-fluoro-1H-indol-1-yl)ethan-1-one] gave an IC50 in assay [1] of more than 10 µM. This molecule also returned an EC50 in assay [2] of more than 10 µM.

On to `COc1cc(F)c2c(ccn2CC(C)(C)N(C)C)c1` [Example 17, 1-(7-fluoro-5-methoxy-1H-indol-1-yl)-N,N,2-trimethylpropan-2-amine], for which the IC50 in assay [1] is more than 10 µM. Also, the EC50 in assay [2] was more than 10 µM.

`COc1cc2ccn(C[C@@H](C)N)c2cn1` [Example 31, (R)-1-(5-methoxy-1H-pyrrolo[2,3-c]pyridin-1-yl)propan-2-amine] gave an IC50 in assay [1] of 0.101 to 1 µM. The EC50 in assay [2] was 0.101 to 1 µM.

In the case of `CC(C)(N)Cn1ccc2c(F)c(F)ccc21` [Example 41, 1-(4,5-difluoro-1H-indol-1-yl)-2-methylpropan-2-amine], the IC50 in assay [1] was in the range of 0.101 to 1 µM. In assay [2], this molecule gave an EC50 of 0.101 to 1 µM.

The molecule `COc1ccc2c(ccn2C[C@@H](C)N(C)C)n1` [Example 30, (R)-1-(5-methoxy-1H-pyrrolo[3,2-b]pyridin-1-yl)-N,N-dimethylpropan-2-amine] returned an IC50 in assay [1] of more than 10 µM. In assay [2], this molecule had an EC50 of more than 10 µM.

As to `COc1cnc2c(ccn2CCN(C)C)c1` [Example 5, 2-(5-methoxy-1H-pyrrolo[2,3-b]pyridin-1-yl)-N,N-dimethylethan-1-amine], the IC50 in assay [1] was 0.101 to 1 µM. The molecule also yielded a half-maximal effective concentration (EC50) in assay [2] of more than 10 µM.

Turning to `C[C@H](Cn1ccc2cncnc21)N(C)C` [Example 27, (R)—N,N-dimethyl-1-(7H-pyrrolo[2,3-d]pyrimidin-7-yl)propan-2-amine], the IC50 in assay [1] was more than 10 µM. This molecule registered an EC50 in assay [2] of more than 10 µM.

Source of the values: patent publication US20230219969A1 (priority 2020, published 2023).
